Consider seven molecules from US9120776B2, “Condensed heterocyclic compound” (Takeda Pharmaceutical Company Limited, priority 2011, dated 2015).

The subject of experiment [1] is human PBMC. Description: IL17 Production Test in Human PBMC. In kind it is cell-based. As to conditions: 72 h, inhibitory rate at 10 μM of test compound, anti-CD3/CD28 stimulation, 3 days, IL-17A by ELISA. Here is the method:
Peripheral blood mononuclear cells (PBMC) collected from human peripheral blood by a density gradient centrifugation method were stimulated by Dynabeads (registered trade mark; anti-CD3/CD28 antibody) and cultured at 37° C. for 3 days. The compound was dissolved in DMSO and then added thereto. After culture for 3 days under such conditions, the concentration of IL-17A in the culture supernatant obtained by centrifugation was measured by ELISA to evaluate the effect of the compound on IL-17 production.

Experiment [2] concerns Th17 cells. The experiment in a line: Mouse Th17 Cell Differentiation Test (IL-17A in culture supernatant, ELISA). The experiment is classed as cell-based. The conditions noted are these: 96 h, inhibitory rate at 10 μM of test compound, mouse CD4 positive naive T cells, 4 days, IL-17A by ELISA. Here is the method: CD4 positive naive T cells were collected from the spleen cells of BALB/c mice (female, 8-11w, Charles River Laboratories Japan, Inc.) using CD4+CD62L+ T Cell Isolation kit II (Miltenyi Biotec). The CD4 positive naive T cells in a 96 well plate (3×10^5 cells/well) were stimulated (37° C. for culture) with anti-mouse CD3ε antibody (Bio X cell) (10 μg/mL, solid phase) and anti-CD28 antibody (Bio X cell) (5 μg/mL) for 4 days in the presence of anti-IFN-γ antibody (BioLegend), anti-IL-4 antibody (BioLegend), anti-IL-2 antibody (BioLegend), IL-6, TGF-β and IL-23 to differentiate into Th17 cells. The compound was dissolved in DMSO and then added thereto. The cells were cultured under these conditions for 4 days, and differentiation of the Th17 cells was evaluated by using the concentration of IL-17A, which was measured by ELISA, in the culture supernatant obtained by centrifugation.
(In an ELISA, binding on a coated surface is turned into a signal by an enzyme label.)

The subject of experiment [3] is Th17 cells. The experiment in a line: Human Th17 Cell Differentiation Test (IL-17A in culture supernatant, ELISA). The conditions noted are these: 144 h; inhibitory rate at 10 μM of test compound; human CD4 positive naive T cells, 6 days, IL-17A by ELISA. The experiment is classed as cell-based. On the procedure:
CD4 positive naive T cells were isolated from peripheral blood mononuclear cells (PBMC) collected from human peripheral blood by a density gradient centrifugation method. The CD4 positive naive T cells were seeded in a 96 well plate (2×10^4 cells/well), and stimulated (37° C. for culture) with anti-CD 3/28Ab Dynabeads (Invitrogen) for 6 days in the presence of IL-1β, IL-6, IL-23, TGFβ, anti-IFNγ Ab (BioLegend) and anti-IL-4 Ab (BioLegend) to differentiate into Th17 cells. The compound was dissolved in DMSO and then added thereto. After culture for 6 days, the concentration of IL-17A in the culture supernatant obtained by centrifugation was measured by ELISA to evaluate differentiation of the Th17 cells.

Experiment [4] has as its target T1, RORγt (Homo sapiens, UniProt P51449).
T1 sequence (P51449 1-497 isoform P51449-2): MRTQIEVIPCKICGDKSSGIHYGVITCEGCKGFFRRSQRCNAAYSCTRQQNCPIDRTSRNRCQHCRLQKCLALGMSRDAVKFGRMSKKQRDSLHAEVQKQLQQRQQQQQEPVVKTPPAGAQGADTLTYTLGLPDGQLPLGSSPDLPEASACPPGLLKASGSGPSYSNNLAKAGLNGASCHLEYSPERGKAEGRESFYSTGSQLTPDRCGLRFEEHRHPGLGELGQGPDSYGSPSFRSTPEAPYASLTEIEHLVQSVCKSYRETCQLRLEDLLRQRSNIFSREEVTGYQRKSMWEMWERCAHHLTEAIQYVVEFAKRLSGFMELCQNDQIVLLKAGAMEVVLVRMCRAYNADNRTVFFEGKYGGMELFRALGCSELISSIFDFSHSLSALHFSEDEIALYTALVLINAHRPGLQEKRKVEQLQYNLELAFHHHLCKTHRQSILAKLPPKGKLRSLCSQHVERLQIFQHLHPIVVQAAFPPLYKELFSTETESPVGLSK
Description: Jurkat Reporter Test (human IL-17 ROR response element luciferase, RORγt vector). The conditions noted are these: luminescence level inhibitory rate at test compound 3 μM, Jurkat cells; read-out: inhibitory rate (%). The experiment is classed as cell-based. Here is the method:
The Jurkat cells used for the reporter test were cultured in a culture medium (RPMI (Invitrogen), 10% FCS (AusGeneX), 100 U/mL penicillin, 100 μg/mL streptomycin). On the day of the test, 4×10^7 cells were recovered by a centrifugal operation (1000 rpm, 5 min.) and suspended in PBS (phosphate buffered saline) (Invitrogen). Thereafter, the cells were recovered again by a centrifugal operation, and suspended in 2 mL of R buffer (NEON transfection kit, Invitrogen). […] Gene transfer was performed by Electroporation apparatus (NEON, Invitrogen) under the conditions of pulse voltage 1350 V, interval 10 milliseconds, number of times 3. The cells after gene transfer were suspended in 40 mL of a reaction medium (RPMI, 10% Lipid reduced FCS (HyClone), 10 mM HEPES (pH 7.5), 100 U/mL penicillin, 100 μg/mL streptomycin, 5 μM lovastatin), and plated in a 96 well plate by 90 μL each. A test compound diluted with the reaction medium was added by 10 μL each, and the cells were cultured overnight in an incubator. Bright-Glo (Promega) was added by 100 μL each, and the mixture was stirred at room temperature for 10 min, and the luminescence level was measured by Envision (PerkinElmer).

In experiment [5] the target is T1, RORγt. The experiment in a line: Cofactor Recruitment Test (Alpha Screen, biotinylated SRC-1 peptide). The experiment is classed as biochemical. On the set-up: histidine tag (implied by the Histidine Detection Kit). The conditions noted are these: signal value inhibitory rate at test compound 1 μM. Here is the method: Cofactor recruitment test was performed by Alpha Screen (Histidine Detection Kit, PerkinElmer) method. First, a test compound diluted with an assay buffer (50 mM Tris-HCl (pH 7.5), 50 mM KCl, 1 mM DTT, 0.1% BSA) was added to a 384 well plate by 5 μL each. […] The mixture was stood in a dark place for 1 hr, and the signal value was measured by Envision (PerkinElmer).

For experiment [6], the target named is T1, RORγt. The experiment in a line: RORγt Binding Test (TR-FRET, fluorescent-labeled cholesterol). As to conditions: binding inhibitory rate of fluorescent-labeled cholesterol to RORγt at test compound 1 μM. Also noted: histidine tag (implied by the Histidine Detection Kit). Here is the method:
The binding activity of the test compound to RORγt was measured by a time resolved fluorescence resonance energy transfer method (TR-FRET) utilizing histidine-tagged RORγt, fluorescent-labeled cholesterol (BODIPY-cholesterol, AVIVA) and terbium-labeled anti-histidine tag antibody (Invitrogen). First, a test compound diluted with an assay buffer (20 mM Tris-HCl (pH 7.5), 100 mM NaCl, 1 mM DTT, 0.1% BSA) was added to a 384 well plate by 3 μL each. Then, RORγt diluted with an assay buffer to 240 nM was added by 3 μL each, after which fluorescent-labeled cholesterol diluted with the assay buffer to 12 μM was added by 3 μL each, and the mixture was stood at room temperature for 20 min. Thereafter, a terbium-labeled anti-histidine tag antibody diluted with the assay buffer to 8 nM was added by 3 μL each. The mixture was stood at room temperature for 20 min, and fluorescence intensity (excitation wavelength 320 nm, fluorescence wavelength 520 nm, delay time 100 microseconds) was measured by Envision (PerkinElmer).

As to `CCn1c2ccccc2c2cc(NC(=O)CC(C)CC(=O)Nc3ccc(C#N)c(C(F)(F)F)c3)ccc21` (stereo not drawn) [Example 18, N-[4-cyano-3-(trifluoromethyl)phenyl]-N′-(9-ethyl-9H-carbazol-3-yl)-3-methylpentanediamide], the inhibition at 10 µM in experiment [1] amounted to 96%; in experiment [2] (Mus musculus, CD4 positive), 95.8%; in experiment [3], 98.5%.
As to `CCn1c2ccccc2c2cc(NC(=O)CC(C)(O)CCOc3ccc(C#N)c(Cl)c3)ccc21` (stereo not drawn) [Example 30, 5-(3-chloro-4-cyanophenoxy)-N-(9-ethyl-9H-carbazol-3-yl)-3-hydroxy-3-methylpentanamide], the inhibition at 3 µM in experiment [4] turned out to be 92.5%. For the same molecule, the results for the inhibition at 1 µM in experiment [5] and in experiment [6] were 100% and 94.4%, respectively. The inhibition at 10 µM amounted to 100% in experiment [1], 96.1% in experiment [2] and 100% in experiment [3].
As for `CC(C)Cn1c2c(c3cc(NC(=O)CC(C)CC(=O)Nc4ccc(C#N)cc4)ccc31)CCCC2` (stereo not drawn) [Example 20, N-(4-cyanophenyl)-3-methyl-N′-[9-(2-methylpropyl)-2,3,4,9-tetrahydro-1H-carbazol-6-yl]pentanediamide], the inhibition at 3 µM in experiment [4] worked out at 102%. Besides, the figures for the inhibition at 1 µM in experiment [5] and in experiment [6] were 101% and 98.7%, respectively. The inhibition at 10 µM turned out to be 84% in experiment [1], 95.8% in experiment [2] and 89.9% in experiment [3].
`CCn1c2c(c3cc(NC(=O)CC(C)CC(=O)Nc4ccc(C#N)cc4)ccc31)CCCC2` (stereo not drawn) [Example 4, N-(4-cyanophenyl)-N′-(9-ethyl-2,3,4,9-tetrahydro-1H-carbazol-6-yl)-3-methylpentanediamide]: the inhibition at 10 µM was found to be 88.3% in experiment [1]; 97% in experiment [2] (Mus musculus, CD4 positive); 100% in experiment [3].
For `CCn1c2ccccc2c2cc(NC(=O)CCCC(=O)Nc3ccc(C#N)cc3)ccc21` [Example 16, N-(4-cyanophenyl)-N′-(9-ethyl-9H-carbazol-3-yl)pentanediamide], the inhibition at 10 µM in experiment [1] is 91%; in experiment [2] (Mus musculus, CD4 positive) it was 96%; in experiment [3], 96.2%.
`CCn1c(C)c(C)c2cc(NC(=O)CC(C)CC(=O)Nc3ccc(C#N)cc3)ccc21` (stereo not drawn) [Example 3, N-(4-cyanophenyl)-N′-(1-ethyl-2,3-dimethyl-1H-indol-5-yl)-3-methylpentanediamide]: the inhibition at 3 µM in experiment [4] turned out to be 82.6%. Further, the inhibition at 1 µM in experiment [5] came to 99.7%; in experiment [6] it was 88.2%. The values for the inhibition at 10 µM in experiment [1], in experiment [2] and in experiment [3] were 73.3%, 97.1% and 80%, respectively.
`CCCn1c2c(c3cc(NC(=O)CC(C)CC(=O)Nc4ccc(C#N)cc4)ccc31)CCCC2` (stereo not drawn) [Example 19, N-(4-cyanophenyl)-3-methyl-N′-(9-propyl-2,3,4,9-tetrahydro-1H-carbazol-6-yl)pentanediamide]: the inhibition at 3 µM in experiment [4] was found to be 103%. Moreover, the inhibition at 1 µM was 101% in experiment [5] and 98.9% in experiment [6]. For the same molecule, the inhibition at 10 µM was 87% in experiment [1], 95.8% in experiment [2] and 95.2% in experiment [3].
